Source: article PMC9525273 (Nature Communications, 2022)
Where “and” joins values, the source holds several entries; their conditions need not be identical. Identical values can stand only once. Like-named read-outs stand apart in the source and are kept apart here.

Columns and labels:
Assay in all cases: [Na+]cyt measurement (SBFI), Na+ dysregulation
[1] = tested on: isolated Dd2-Polδ-PfATP4^G358S P. falciparum trophozoites; format: cell-based, Plasmodium falciparum
Procedure: (§1) The ratio of the fluorescence intensity recorded at 340 nm and 380 nm (with an emission wavelength of 515 nm) was converted to [Na^+]cyt using a calibration procedure that entailed suspending parasites in solutions of varying [Na^+] containing ionophores. Fluorescence measurements and calibrations were performed at 37 °C, either with individual 1 mL suspensions using a PerkinElmer LS 50B fluorescence spectrometer (for resting [Na^+]cyt measurements for which the data are shown in Supplementary Fig. 7) or in 96-well plates using a Tecan Infinite M1000 PRO plate reader with i-control (version 1.12) software (all other [Na^+]cyt measurements).

[2] = tested on: extracellular T. gondii tachyzoites expressing TgATP4^G419S-HA; format: cell-based, Toxoplasma gondii; parameters: Final [Na+]cyt reached: unit not given here; conditions: TgATP4G419S-HA; for IC50: Toxoplasma gondii
Procedure: as §1

[3] = tested on: extracellular T. gondii tachyzoites expressing TgATP4^WT; format: cell-based, Toxoplasma gondii; parameters: Final [Na+]cyt reached: unit not given here
Procedure: as §1

N#Cc1cc(NC(=O)[C@H]2c3ccccc3C(=O)N(CC(F)(F)F)[C@@H]2c2cccnc2)ccc1F [(+)-SJ733]
IC50 ([1]; Dd2-Polδ-PfATP4G358S, single experiments, source data of Table 1 (nM there), read-out: IC50 for Na+ dysregulation): > 20000 nM
IC50 ([1]; Plasmodium falciparum, DD2, 1.5 h, pH 7.1, Dd2-Polδ-PfATP4G358S, ~90 min exposure, 37 °C, pH 7.1, read-out: IC50 for Na+ dysregulation): > 10000 nM
IC50 ([1]; Plasmodium falciparum, DD2, Dd2-Polδ-PfATP4G358S, MEAN, source data of Table 1 (nM there), read-out: IC50 for Na+ dysregulation, MEAN): > 10000 nM
IC50 ([1]; Plasmodium falciparum, DD2, Dd2-Polδ-PfATP4G358S, single experiments, source data of Table 1 (nM there), read-out: IC50 for Na+ dysregulation): > 10000 nM
Final [Na+]cyt reached ([2]; [(+)-SJ733] 19.5 nM, MEAN): 11.4
Final [Na+]cyt reached ([2]; [(+)-SJ733] 39.1 nM, MEAN): 14.1
Final [Na+]cyt reached ([2]; [(+)-SJ733] 39.1 nM, single experiments): 15.8 and 12.1 and 14.4
Final [Na+]cyt reached ([2]; [(+)-SJ733] 78.1 nM, MEAN): 14.7
Final [Na+]cyt reached ([2]; [(+)-SJ733] 78.1 nM, single experiments): 18.4 and 12.6 and 13.2
Final [Na+]cyt reached ([2]; [(+)-SJ733] 156.3 nM, MEAN): 13.7
Final [Na+]cyt reached ([2]; [(+)-SJ733] 156.3 nM, single experiments): 14.7 and 11.2 and 15.2
Final [Na+]cyt reached ([2]; [(+)-SJ733] 312.5 nM, MEAN): 13.9
Final [Na+]cyt reached ([2]; [(+)-SJ733] 312.5 nM, single experiments): 15.6 and 11.4 and 14.7
Final [Na+]cyt reached ([2]; [(+)-SJ733] 625 nM, MEAN): 13.0
Final [Na+]cyt reached ([2]; [(+)-SJ733] 625 nM, single experiments): 14.4 and 12.2 and 12.5
Final [Na+]cyt reached ([2]; [(+)-SJ733] 2500 nM, MEAN): 13.7
Final [Na+]cyt reached ([2]; [(+)-SJ733] 2500 nM, single experiments): 15.4 and 12.6 and 13.0
Final [Na+]cyt reached ([2]; [(+)-SJ733] 5000 nM, MEAN): 13.4
Final [Na+]cyt reached ([2]; [(+)-SJ733] 5000 nM, single experiments): 14.6 and 12.4 and 13.1
Final [Na+]cyt reached ([2]; [(+)-SJ733] 10000 nM, MEAN): 12.1
Final [Na+]cyt reached ([2]; [(+)-SJ733] 10000 nM, single experiments): 13.0 and 11.9 and 11.5
Final [Na+]cyt reached ([2]; [(+)-SJ733] 20000 nM, MEAN): 12.6
Final [Na+]cyt reached ([2]; [(+)-SJ733] 20000 nM, single experiments): 13.7 and 11.8 and 12.3
Final [Na+]cyt reached ([2]; [(+)-SJ733] 40000 nM, MEAN): 11.6
Final [Na+]cyt reached ([2]; [(+)-SJ733] 40000 nM, single experiments): 12.7 and 10.4 and 11.7
IC50 ([2]; 1.5 h, ~90 min exposure, 37 °C, pH 7.1, read-out: IC50 for Na+ dysregulation): > 40000 nM
IC50 ([2]; MEAN, source data of Table 1 (nM there), read-out: IC50 for Na+ dysregulation, MEAN): > 40000 nM
IC50 ([2]; single experiments, source data of Table 1 (nM there), read-out: IC50 for Na+ dysregulation): > 40000 nM
IC50 ([3]; Toxoplasma gondii, 1.5 h, pH 7.1, WT T. gondii (TgATP4WT), ~90 min exposure, 37 °C, pH 7.1, mean ± SEM, read-out: IC50 for Na+ dysregulation): 5040 ± 572 nM
IC50 ([3]; Toxoplasma gondii, WT T. gondii, MEAN, source data of Table 1 (nM there), read-out: IC50 for Na+ dysregulation, MEAN): 5040 nM
IC50 ([3]; Toxoplasma gondii, WT T. gondii, single experiments, source data of Table 1 (nM there), read-out: IC50 for Na+ dysregulation): 4900 nM
Final [Na+]cyt reached ([3]; WT T. gondii, [(+)-SJ733] 19.5 nM, MEAN): 11.8
Final [Na+]cyt reached ([3]; WT T. gondii, [(+)-SJ733] 39.1 nM, MEAN): 11.7
Final [Na+]cyt reached ([3]; WT T. gondii, [(+)-SJ733] 78.1 nM, MEAN): 12.4
Final [Na+]cyt reached ([3]; WT T. gondii, [(+)-SJ733] 156.3 nM, MEAN): 13.8
Final [Na+]cyt reached ([3]; WT T. gondii, [(+)-SJ733] 312.5 nM, MEAN): 15.1
Final [Na+]cyt reached ([3]; WT T. gondii, [(+)-SJ733] 625 nM, MEAN): 18.3
Final [Na+]cyt reached ([3]; WT T. gondii, [(+)-SJ733] 2500 nM, MEAN): 32.1
Final [Na+]cyt reached ([3]; WT T. gondii, [(+)-SJ733] 2500 nM, single experiments): 21.7 and 37.9 and 34.1 and 34.6
Final [Na+]cyt reached ([3]; WT T. gondii, [(+)-SJ733] 5000 nM, MEAN): 48.9
Final [Na+]cyt reached ([3]; WT T. gondii, [(+)-SJ733] 5000 nM, single experiments): 41.9 and 51.4 and 51.0
Final [Na+]cyt reached ([3]; WT T. gondii, [(+)-SJ733] 10000 nM, MEAN): 65.1
Final [Na+]cyt reached ([3]; WT T. gondii, [(+)-SJ733] 10000 nM, single experiments): 65.8 and 64.6 and 71.3 and 58.7
Final [Na+]cyt reached ([3]; WT T. gondii, [(+)-SJ733] 20000 nM, MEAN): 76.4
Final [Na+]cyt reached ([3]; WT T. gondii, [(+)-SJ733] 20000 nM, single experiments): 74.3 and 76.4 and 85.9 and 69.1
Final [Na+]cyt reached ([3]; WT T. gondii, [(+)-SJ733] 40000 nM, MEAN): 81.2
Final [Na+]cyt reached ([3]; WT T. gondii, [(+)-SJ733] 40000 nM, single experiments): 81.0 and 95.3 and 67.2
IC50 ([3]; WT T. gondii, single experiments, source data of Table 1 (nM there), read-out: IC50 for Na+ dysregulation): 4780 nM and 6620 nM and 3880 nM
